PubChem BioAssay AID256 (DTP/NCI, 2004)
Several values for one entry are separate records, joined by “and”; a condition that tells them apart may be missing. Identical values can stand only once. Inconclusive results and toxic doses are left out. The calls were made as follows: active = survival T/C of 150% or more; inactive = T/C below 125% in these data.

System: CD2F1 mice, L1210 leukemia ip, survival T/C
Assay: NCI In Vivo Anticancer Drug Screen. Data for tumor model L1210 Leukemia (intraperitoneal) in CD2F1 (CDF1) mice
Conditions: higher = longer survival
In short: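 Activity against a transplanted murine tumor was judged by comparing the compound group with a vehicle group. The outcome in the treated animals was divided by that in the controls.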

[1] = endpoint: mean survival time, dose: 50.0 mg/kg/injection, schedule: Q01DX009 (ip), vehicle: saline with Tween-80
[2] = endpoint: mean survival time, dose: 100.0 mg/kg/injection, schedule: Q01DX009 (ip), vehicle: saline with Tween-80
[3] = endpoint: mean survival time, dose: 200.0 mg/kg/injection, schedule: Q01DX009 (ip), vehicle: saline with Tween-80
[4] = endpoint: mean survival time, dose: 100.0 mg/kg/injection, schedule: Q04DX003 (ip), vehicle: saline with Tween-80
[5] = endpoint: mean survival time, dose: 200.0 mg/kg/injection, schedule: Q04DX003 (ip), vehicle: saline with Tween-80
[6] = endpoint: mean survival time, dose: 400.0 mg/kg/injection, schedule: Q04DX003 (ip), vehicle: saline with Tween-80
[7] = endpoint: mean survival time, dose: 100.0 mg/kg/injection, schedule: Q04DX003 (ip), vehicle: Klucel (hydroxypropylcellulose) (HPC)
[8] = endpoint: mean survival time, dose: 200.0 mg/kg/injection, schedule: Q04DX003 (ip), vehicle: Klucel (hydroxypropylcellulose) (HPC)
[9] = endpoint: mean survival time, dose: 400.0 mg/kg/injection, schedule: Q04DX003 (ip), vehicle: Klucel (hydroxypropylcellulose) (HPC)
[10] = endpoint: mean survival time, dose: 50.0 mg/kg/injection, schedule: Q04DX002 (ip), vehicle: saline with Tween-80
[11] = endpoint: mean survival time, dose: 12.5 mg/kg/injection, schedule: Q01DX009 (ip), vehicle: saline with Tween-80
[12] = endpoint: mean survival time, dose: 25.0 mg/kg/injection, schedule: Q01DX009 (ip), vehicle: saline with Tween-80
[13] = endpoint: mean survival time, dose: 100.0 mg/kg/injection, schedule: Q04DX002 (ip), vehicle: saline with Tween-80
[14] = endpoint: mean survival time, dose: 200.0 mg/kg/injection, schedule: Q04DX002 (ip), vehicle: saline with Tween-80

Measured: T/C

CN(C)c1ccc(-c2c3cc(O)c(=O)cc-3oc3cc(O)c(O)cc23)cc1
inactive: [1] 92 % of control | [2] 95 % of control | [3] 91 % of control

CC(C)(C)C(=O)CC(=O)C(C)(C)C.CC(C)(C)C(=O)CC(=O)C(C)(C)C.CC(C)(C)C(=O)CC(=O)C(C)(C)C.[Nd]
inactive: [4] 101 % of control | [5] 95 % of control | [6] 95 % of control

Cn1c(-c2ccccc2)cc(=O)cc1-c1ccccc1
inactive: [1] 96 % of control | [2] 93 % of control | [4] 91 % of control | [3] 94 % of control | [5] 97 % of control

OCC1OC(n2c(C(F)(F)F)nc3cc4ccccc4cc32)C(O)C1O (stereo not drawn)
inactive: endpoint: median survival time, dose: 22.5 mg/kg/injection, schedule: Q01DX005 (ip), vehicle: saline with Tween-80 103 % of control | endpoint: median survival time, dose: 45.0 mg/kg/injection, schedule: Q01DX005 (ip), vehicle: saline with Tween-80 103 % of control | endpoint: median survival time, dose: 90.0 mg/kg/injection, schedule: Q01DX005 (ip), vehicle: saline with Tween-80 93 % of control | endpoint: median survival time, dose: 180.0 mg/kg/injection, schedule: Q01DX005 (ip), vehicle: saline with Tween-80 98 % of control

CC(=O)NC1C(OC(C)=O)OC(COC(c2ccccc2)(c2ccccc2)c2ccccc2)C(OS(C)(=O)=O)C1OC(C)=O (stereo not drawn)
inactive: endpoint: mean survival time, dose: 50.0 mg/kg/injection, schedule: Q04DX003 (ip), vehicle: saline with Tween-80 95 % of control | [4] 103 % of control | [5] 101 % of control | [6] 89 % of control

COc1ccc(-c2c3nc(c(-c4ccc(OC)cc4)c4ccc([nH]4)c(-c4ccc(OC)cc4)c4nc(c(-c5ccc(OC)cc5)c5ccc2[nH]5)C=C4)C=C3)cc1
inactive: [7] 93 % of control | [8] 101 % of control | [9] 89 % of control

O=C1NC(=O)C(Cc2ccccc2)(Cc2ccccc2)C(=O)N1Cc1ccccc1
inactive: [1] 100 % of control | [2] 91 % of control | [3] 100 % of control

CC[C@@]1(O)C[C@H](OC2CC(N(C)C)C(OC3CC(O)C(OC4CCC(=O)C(C)O4)C(C)O3)C(C)O2)c2c(cc3c(c2O)C(=O)c2c(O)cccc2C3=O)[C@H]1C(=O)OC (stereo partly drawn)
inactive: endpoint: mean survival time, dose: 0.12 mg/kg/injection, schedule: Q01DX009 (ip), vehicle: water 97 % of control | endpoint: mean survival time, dose: 0.25 mg/kg/injection, schedule: Q01DX009 (ip), vehicle: water 92 % of control | endpoint: mean survival time, dose: 0.5 mg/kg/injection, schedule: Q01DX009 (ip), vehicle: water 95 % of control | endpoint: mean survival time, dose: 1.0 mg/kg/injection, schedule: Q01DX009 (ip), vehicle: water 90 % of control | endpoint: mean survival time, dose: 2.0 mg/kg/injection, schedule: Q01DX009 (ip), vehicle: water 106 % of control | endpoint: mean survival time, dose: 4.0 mg/kg/injection, schedule: Q01DX009 (ip), vehicle: water 108 % of control | endpoint: mean survival time, dose: 8.0 mg/kg/injection, schedule: Q01DX009 (ip), vehicle: water 86 % of control | [10] 87 % of control

C/C(=N/NC(N)=S)c1ccc2ccccc2c1
inactive: endpoint: mean survival time, dose: 6.25 mg/kg/injection, schedule: Q01DX009 (ip), vehicle: saline with Tween-80 103 % of control | [11] 115 % of control | [12] 122 % of control | [1] 89 % of control

CCCCN1C(=O)C(=O)N(c2cc(C)c(C)cc2C)C1=O
inactive: [11] 100 % of control | [12] 96 % of control | [1] 92 % of control | [2] 90 % of control

COC(=O)CSC(=S)N(C)C
inactive: [4] 98 % of control | [5] 100 % of control | [6] 90 % of control

OCC1OC(n2cnc3c(Cl)nccc32)C(O)C1O (stereo not drawn)
inactive: endpoint: median survival time, dose: 9.63 mg/kg/injection, schedule: Q01DX005 (ip), vehicle: saline 100 % of control | endpoint: median survival time, dose: 19.25 mg/kg/injection, schedule: Q01DX005 (ip), vehicle: saline 104 % of control | endpoint: median survival time, dose: 38.5 mg/kg/injection, schedule: Q01DX005 (ip), vehicle: saline 94 % of control | endpoint: median survival time, dose: 77.0 mg/kg/injection, schedule: Q01DX005 (ip), vehicle: saline 108 % of control | endpoint: median survival time, dose: 154.0 mg/kg/injection, schedule: Q01DX005 (ip), vehicle: saline 101 % of control

COC(=O)C1=CNC=C(C(=O)OC)C1c1ccccc1Cl
inactive: [4] 95 % of control | [5] 97 % of control | [6] 89 % of control

CC1CN(CCC#N)C(=O)S1(=O)=O (stereo not drawn)
inactive: endpoint: mean survival time, dose: 75.0 mg/kg/injection, schedule: Q01DX001 (ip), vehicle: other 108 % of control

Cc1ccc(Cl)cc1NC(=O)Nc1nccs1
inactive: endpoint: mean survival time, dose: 50.0 mg/kg/injection, schedule: Q01DX009 (ip), vehicle: Klucel (hydroxypropylcellulose) (HPC) 91 % of control | endpoint: mean survival time, dose: 100.0 mg/kg/injection, schedule: Q01DX009 (ip), vehicle: Klucel (hydroxypropylcellulose) (HPC) 91 % of control | endpoint: mean survival time, dose: 200.0 mg/kg/injection, schedule: Q01DX009 (ip), vehicle: Klucel (hydroxypropylcellulose) (HPC) 102 % of control

CCCCCCCCCCCCOC(=O)C[n+]1cccc(C(=O)NCc2ccccc2)c1
inactive: endpoint: mean survival time, dose: 6.25 mg/kg/injection, schedule: Q04DX003 (ip), vehicle: saline with Tween-80 108 % of control | endpoint: mean survival time, dose: 12.5 mg/kg/injection, schedule: Q04DX003 (ip), vehicle: saline with Tween-80 104 % of control | endpoint: mean survival time, dose: 25.0 mg/kg/injection, schedule: Q04DX003 (ip), vehicle: saline with Tween-80 106 % of control

CCNC(=O)Nc1nc2ccccc2s1
inactive: [13] 103 % of control | [14] 103 % of control | endpoint: mean survival time, dose: 400.0 mg/kg/injection, schedule: Q04DX002 (ip), vehicle: saline with Tween-80 92 % of control

CN1CC2(Cc3ccccc3)c3ccccc3NC2(NC(=O)CCl)C1=O (stereo not drawn)
inactive: endpoint: mean survival time, dose: 25.0 mg/kg/injection, schedule: Q04DX002 (ip), vehicle: saline with Tween-80 87 % of control | [10] 95 % of control | [13] 91 % of control | endpoint: mean survival time, dose: 200.0 mg/kg/injection, schedule: Q01DX001 (ip), vehicle: saline with Tween-80 92 % of control | [14] 89 % of control | endpoint: mean survival time, dose: 400.0 mg/kg/injection, schedule: Q01DX001 (ip), vehicle: saline with Tween-80 96 % of control

C/C(=N/O)c1cccc([N+](=O)[O-])c1
inactive: [2] 95 % of control | [4] 104 % of control | [3] 98 % of control | [5] 95 % of control | [6] 103 % of control

[Br][Pt].[NH-]CC[N-]CC[NH-]
inactive: endpoint: mean survival time, dose: 12.5 mg/kg/injection, schedule: Q01DX009 (ip), vehicle: water 98 % of control | endpoint: mean survival time, dose: 25.0 mg/kg/injection, schedule: Q01DX009 (ip), vehicle: water 93 % of control

Nc1ccc(Cl)cc1N
inactive: endpoint: mean survival time, dose: 25.0 mg/kg/injection, schedule: Q01DX009 (ip), vehicle: other 96 % of control | endpoint: mean survival time, dose: 50.0 mg/kg/injection, schedule: Q01DX009 (ip), vehicle: other 102 % of control | endpoint: mean survival time, dose: 75.0 mg/kg/injection, schedule: Q01DX009 (ip), vehicle: other 107 % of control | endpoint: mean survival time, dose: 100.0 mg/kg/injection, schedule: Q01DX009 (ip), vehicle: other 106 % of control | endpoint: mean survival time, dose: 150.0 mg/kg/injection, schedule: Q01DX009 (ip), vehicle: other 112 % of control

C#CCOC1CCCC1O (stereo not drawn)
inactive: endpoint: mean survival time, dose: 100.0 mg/kg/injection, schedule: Q04DX003 (ip), vehicle: acetone 101 % of control

O=C(CCl)N1CCc2ccccc21
inactive: [7] 98 % of control | [8] 103 % of control | [9] 97 % of control

CC1(C)CC(N2CCCOP2(=O)N(CCCl)CCCl)CC(C)(C)N1 (stereo not drawn)
inactive: endpoint: mean survival time, dose: 62.5 mg/kg/injection, schedule: Q01DX001 (ip), vehicle: water 105 % of control | endpoint: mean survival time, dose: 125.0 mg/kg/injection, schedule: Q01DX001 (ip), vehicle: water 100 % of control | endpoint: mean survival time, dose: 250.0 mg/kg/injection, schedule: Q01DX001 (ip), vehicle: water 106 % of control

O=c1cc(-c2ccccc2)[nH]c2c1CCCC2
inactive: endpoint: median survival time, dose: 12.5 mg/kg/injection, schedule: Q01DX009 (ip), vehicle: saline with Tween-80 102 % of control | endpoint: median survival time, dose: 25.0 mg/kg/injection, schedule: Q01DX009 (ip), vehicle: saline with Tween-80 105 % of control | endpoint: median survival time, dose: 50.0 mg/kg/injection, schedule: Q01DX009 (ip), vehicle: saline with Tween-80 103 % of control and 108 % of control and 109 % of control | endpoint: median survival time, dose: 100.0 mg/kg/injection, schedule: Q01DX009 (ip), vehicle: saline with Tween-80 115 % of control and 116 % of control and 105 % of control | endpoint: median survival time, dose: 200.0 mg/kg/injection, schedule: Q01DX009 (ip), vehicle: saline with Tween-80 117 % of control and 120 % of control | endpoint: median survival time, dose: 400.0 mg/kg/injection, schedule: Q01DX009 (ip), vehicle: saline with Tween-80 90 % of control and 103 % of control
